Assay results taken from patent publication US11274106B2, “Topoisomerase inhibitors with antibacterial and anticancer activity” (THE BOARD OF TRUSTEES OF THE UNIVERSITY OF ILLINOIS, priority 2017, dated 2022).
≈ marks a conversion by molar mass, not a printed value.

Columns and labels:
E. coli = experiment: Antibacterial MIC, microbroth dilution, E. coli; type: cell-based
Experimental: (§1) To investigate this possibility, the antibacterial effects of the DNM derivatives was assessed against strains of E. coli, S. aureus, and MRSA using the microbroth dilution method (Table 2).

MRSA = experiment: Antibacterial MIC, microbroth dilution, MRSA; type: cell-based, S. aureus; conditions: Staphylococcus aureus, MRSA; microbroth dilution
Experimental: as §1

HCT-116 = experiment: Antiproliferative SRB assay, HCT-116; type: cell-based; conditions: Homo sapiens, HCT-116, 72 h, Colon cancer, mean ± SEM
Source text: (§2) Topoisomerase inhibitors such as DOX are used as single agent and in combination therapy to treat a wide-range of cancer types.

HeLa = experiment: Antiproliferative SRB assay, HeLa; type: cell-based; conditions: Homo sapiens, 72 h, Ovarian cancer (footnote e), mean ± SEM
Source text: as §2

HOS = experiment: Antiproliferative SRB assay, HOS; type: cell-based; conditions: Homo sapiens, 72 h, Osteosarcoma, mean ± SEM
Source text: as §2

HL-60 = experiment: Cell viability Alamar Blue assay, HL-60; type: cell-based; conditions: Homo sapiens, HL-60, 72 h, Leukemia, mean ± SEM
Source text: as §2

E. coli DNA Gyrase = E. coli DNA Gyrase (Escherichia coli, UniProt P0AES4+P0AES6); experiment: E. coli DNA Gyrase supercoiling assay; type: biochemical
Source text: (§3) FIG. 8. In vitro inhibitory activity of 6DNM-NH3, Ph-6DNM-NH3 against E. coli DNA gyrase and TopoIV.
(§4) DNM and its derivatives exert their antibacterial effects through inhibition of the DNA Gyrase.

E. coli TopoIV = E. coli TopoIV (Escherichia coli, UniProt P0AFI2+P20083); experiment: E. coli TopoIV decatenation assay; type: biochemical
Sequence of E. coli TopoIV (P0AFI2 whole entry): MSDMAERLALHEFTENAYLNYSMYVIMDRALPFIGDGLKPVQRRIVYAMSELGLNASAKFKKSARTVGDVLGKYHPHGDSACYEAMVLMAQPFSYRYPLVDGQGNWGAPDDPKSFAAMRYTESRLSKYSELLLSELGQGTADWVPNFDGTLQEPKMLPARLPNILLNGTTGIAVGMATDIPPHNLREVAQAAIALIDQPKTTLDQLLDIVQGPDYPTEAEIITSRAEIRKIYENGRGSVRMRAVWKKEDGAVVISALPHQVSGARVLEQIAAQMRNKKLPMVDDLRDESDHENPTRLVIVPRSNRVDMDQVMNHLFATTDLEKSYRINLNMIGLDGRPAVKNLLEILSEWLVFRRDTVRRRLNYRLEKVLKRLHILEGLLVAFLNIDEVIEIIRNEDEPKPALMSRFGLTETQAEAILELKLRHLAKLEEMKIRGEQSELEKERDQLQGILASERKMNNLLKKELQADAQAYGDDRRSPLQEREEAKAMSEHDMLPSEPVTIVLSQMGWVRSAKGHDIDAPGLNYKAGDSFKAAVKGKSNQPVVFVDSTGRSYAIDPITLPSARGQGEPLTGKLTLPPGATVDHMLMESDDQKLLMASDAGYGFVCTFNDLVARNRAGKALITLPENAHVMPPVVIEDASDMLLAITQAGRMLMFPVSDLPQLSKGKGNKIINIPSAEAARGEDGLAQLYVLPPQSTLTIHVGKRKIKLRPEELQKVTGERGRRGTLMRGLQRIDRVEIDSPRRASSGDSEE
Sequence of E. coli TopoIV (P20083 whole entry): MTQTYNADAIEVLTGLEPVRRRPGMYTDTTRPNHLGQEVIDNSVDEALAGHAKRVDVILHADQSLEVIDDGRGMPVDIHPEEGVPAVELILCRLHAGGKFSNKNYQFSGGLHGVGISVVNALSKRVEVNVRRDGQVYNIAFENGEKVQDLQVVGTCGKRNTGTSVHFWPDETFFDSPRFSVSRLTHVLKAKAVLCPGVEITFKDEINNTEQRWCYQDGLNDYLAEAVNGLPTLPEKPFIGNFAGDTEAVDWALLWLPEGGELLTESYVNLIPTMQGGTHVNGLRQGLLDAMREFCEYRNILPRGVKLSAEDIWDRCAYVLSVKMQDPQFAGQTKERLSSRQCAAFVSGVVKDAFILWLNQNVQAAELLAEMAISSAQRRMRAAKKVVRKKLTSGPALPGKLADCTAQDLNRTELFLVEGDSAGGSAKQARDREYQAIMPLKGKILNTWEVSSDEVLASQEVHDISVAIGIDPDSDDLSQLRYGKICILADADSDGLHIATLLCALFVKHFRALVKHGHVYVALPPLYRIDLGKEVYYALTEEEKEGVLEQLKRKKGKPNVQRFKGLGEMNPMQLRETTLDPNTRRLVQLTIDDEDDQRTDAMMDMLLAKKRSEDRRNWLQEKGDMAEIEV
Source text: as §3, §4

Top1 = target: T1, Top1 (Homo sapiens, UniProt P11387); experiment: Top1 DNA relaxation assay (pBR322); type: biochemical; conditions: for Inhibition of Top1 relaxation: supercoiled pBR322, FIG. 3b
T1 sequence (P11387 1-765): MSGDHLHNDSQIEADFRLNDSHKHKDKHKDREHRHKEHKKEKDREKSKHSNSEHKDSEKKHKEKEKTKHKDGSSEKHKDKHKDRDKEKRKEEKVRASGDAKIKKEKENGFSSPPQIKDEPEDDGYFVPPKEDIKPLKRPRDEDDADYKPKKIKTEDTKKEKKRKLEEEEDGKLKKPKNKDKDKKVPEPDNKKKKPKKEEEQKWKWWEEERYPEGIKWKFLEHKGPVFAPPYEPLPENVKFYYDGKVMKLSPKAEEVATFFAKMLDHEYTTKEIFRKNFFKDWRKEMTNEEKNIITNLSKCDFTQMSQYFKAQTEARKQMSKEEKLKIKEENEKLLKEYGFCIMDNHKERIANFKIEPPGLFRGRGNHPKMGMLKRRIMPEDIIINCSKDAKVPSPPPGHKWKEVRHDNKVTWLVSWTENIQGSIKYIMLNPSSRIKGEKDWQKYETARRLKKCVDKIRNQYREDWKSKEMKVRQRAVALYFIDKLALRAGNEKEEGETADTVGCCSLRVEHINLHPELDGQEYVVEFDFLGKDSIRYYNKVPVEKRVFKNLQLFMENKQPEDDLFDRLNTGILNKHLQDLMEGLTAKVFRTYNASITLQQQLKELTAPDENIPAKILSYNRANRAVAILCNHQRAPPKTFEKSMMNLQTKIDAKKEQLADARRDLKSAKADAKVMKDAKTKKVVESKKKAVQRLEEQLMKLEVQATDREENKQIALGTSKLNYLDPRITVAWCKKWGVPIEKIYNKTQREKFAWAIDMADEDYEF
Source text: FIG. 3. DNM derivatives are dual Top1/Top2 inhibitors with different modes of inhibition. (a) Inhibition of decatenating ability of Top2α with increasing concentrations of ETP, 6DNM-NH3, 6DNM-Pyr, and Ph-6DNM-NH3. K, kinetoplast DNA; OC, open circular; R, relaxed. (b) Inhibition of relaxing ability of Top1 with increasing concentrations of CPT, 6DNM-NH3, 6DNM-Pyr, and Ph-6DNM-NH3. R, relaxed; S, supercoiled. (c) Detection of Top2a-DNA using the ICE Assay. Genomic DNA ([…]) of H460 cells treated with drugs (50 μM, 30 min) was applied to nitrocellulose membrane and immunoblotted for Top2a. (d) Detection of Top1-DNA adducts using ICE Assay. Same procedure as (c) using 1 μg of DNA. (e) Inhibition of ETP-induced poisoning of Top2a. H460 cells treated with indicated concentrations of inhibitor for 30 min prior to treatment with ETP (50 μM). Detection of Top2α as in (c).
To further investigate any mechanistic differences between these structurally related DNM analogues they were also evaluated against the other clinically-targeted mammalian topoisomerase, Top1, using a DNA relaxation assay in which purified Top1 relaxes supercoiled pBR322 and the two forms are separated by agarose gel electrophoresis.

Row | MIC (E. coli; Escherichia coli) | Compound | E. coli MIC (E. coli) | MIC (MRSA) | IC50 (HCT-116) | IC50 (HeLa) | IC50 (HOS) | IC50 (HL-60) | Inhibition of purified E. coli DNA Gyrase (E. coli DNA Gyrase) | Inhibition of purified E. coli TopoIV (E. coli TopoIV) | Fold less potent Top1 inhibitor than 6DNM-Pyr (Top1; DNA relaxation assay) | Inhibition of Top1 relaxation (Top1)
1 | – | Cc1cc(=O)n2c3c(c4c(cc13)c1ccccc1c(=O)n4C)OCC2CN (stereo not shown) [Compound 15] | 0.25 µg/mL | 1 µg/mL (≈ 2.77 µM) | 37 ± 13 nM | 56 ± 5 nM | 17 ± 1 nM | 470 ± 90 nM | able to inhibit | able to inhibit | more than 20 fold | approximately equipotent to the known Top1 inhibitor camptothecin
2 | 1 µg/mL (≈ 2.64 µM) | Cc1cc(=O)n(C)c2c3c4c(cc12)c(C)cc(=O)n4C(CN1CCCC1)CO3 (stereo not shown) [Compound 20] | – | – | 9 ± 1 nM | 27 ± 1 nM | 16 ± 2 nM | 48 ± 11 nM | – | – | – | inhibit relaxation at submicromolar concentrations
